In general, IC50 refers to the concentration needed to halve the response being measured. A low value points to inhibition by little substance.

This note sets out measurements from US9492460B2, “Carbazole compounds useful as bromodomain inhibitors” (Bristol-Myers Squibb Company, priority 2013, dated 2016).

SMILES strings stand for the structures.

The assay has as its target T1, bromodomain BRD4 (44-168), BRD4 (333-460), and BRD4 (1-477 or 44-460) (Homo sapiens, UniProt O60885).
T1 construct: BRD4(44-168), BRD4(333-460), BRD4(44-460), BRD4(1-477), O60885-1; fused on or other part: N-terminal BirA biotinylation motif, biotinylated; The TVMV-cleavable His6 tag is removed, except in some BRD4(44-460) runs detected with anti-His terbium cryptate
Nature of the assay: Time Resolved Fluorescence Resonance Energy Transfer (TR-FRET) binding assay. The note with it: one of the FRET assays described. Background: TR-FRET usually uses a lanthanide donor and a delayed reading to cut background.
`CNc1ccc2c(c1)c1c(C(N)=O)cc(-c3c(C)noc3C)cc1n2Cc1ccccc1` [Example 130, 9-Benzyl-2-(3,5-dimethyl-4-isoxazolyl)-6-(methylamino)-9H-carbazole-4-carboxamide] displayed an IC50 of less than 0.05 µM. The figure for `Cc1noc(C)c1-c1cc(C(N)=O)c2c3ccc(C(C)C)cc3n([C@H](c3ccccc3)C3CCOCC3)c2c1` [Example 229, 2-(Dimethyl-1,2-oxazol-4-yl)-9-[(S)-oxan-4-yl(phenyl)methyl]-7-(propan-2-yl)-9H-carbazole-4-carboxamide] is less than 0.05 µM. As to `Cc1noc(C)c1-c1ccc2c3cc(C(=O)N4CC(C)OC(C)C4)ccc3n(CCF)c2c1` (centres unmarked) [Example 6], the concentration for half-maximal inhibition (IC50) was less than 0.5 µM.

The compound `Cc1noc(C)c1-c1cc(C(N)=O)c2c3cc(C(=O)N4CCOCC4)ccc3n(Cc3ccccc3)c2c1` [Example 47, 9-benzyl-2-(3,5-dimethyl-4-isoxazolyl)-6-(4-morpholinylcarbonyl)-9H-carbazole-4-carboxamide] returned a concentration for half-maximal inhibition (IC50) of less than 0.05 µM.

For `Cc1noc(C)c1-c1cc(C(=O)N(C)C)c2c3cc(C(=O)N4C[C@@H](C)O[C@@H](C)C4)ccc3n(Cc3ccccc3)c2c1` [Example 118, 9-benzyl-2-(3,5-dimethylisoxazol-4-yl)-6-(cis-2,6-dimethylmorpholine-4-carbonyl)-N,N-dimethyl-9H-carbazole-4-carboxamide], the half-maximal inhibitory concentration (IC50) is less than 0.5 µM. On to `Cc1noc(C)c1-c1cc(C(N)=O)c2c3cc(C(=O)N4CC(F)(F)C4)ccc3n(Cc3ccc(Cl)cc3)c2c1` [Example 95, 9-(4-chlorobenzyl)-6-((3,3-difluoro-1-azetidinyl)carbonyl)-2-(3,5-dimethyl-4-isoxazolyl)-9H-carbazole-4-carboxamide], for which the concentration for half-maximal inhibition (IC50) was less than 0.05 µM. The figure for `Cc1noc(C)c1-c1ccc2c3cc(C(=O)N4CC(C)OC(C)C4)ccc3n(CC(C)C)c2c1` (centres unmarked) [Example 4] is less than 0.5 µM; for `Cc1ccc(Cn2c3ccc(C(=O)N4CC(C)OC(C)C4)cc3c3ccc(-c4c(C)noc4C)cc32)cc1` (centres unmarked) [Example 21] it is less than 0.5 µM. In turn, `Cc1noc(C)c1-c1cc(C#N)c2c3ccc(C(=O)O)cc3n(C(c3ccccc3)c3ccccc3)c2c1` [Example 193, 5-Cyano-7-(3,5-dimethyl-4-isoxazolyl)-9-(diphenylmethyl)-9H-carbazole-2-carboxylic acid] came in with an IC50 of less than 0.05 µM.

With `COC(=O)c1ccc2c3c(C#N)cc(-c4c(C)noc4C)cc3n(Cc3ccccc3)c2c1` [Example 182, Methyl 9-benzyl-5-cyano-7-(3,5-dimethyl-4-isoxazolyl)-9H-carbazole-2-carboxylate], the concentration for half-maximal inhibition (IC50) is less than 7.5 µM.

Take `Cc1noc(C)c1-c1cc(C(N)=O)c2c3cc(C(=O)N4CC(C)OC(C)C4)ccc3n(C(C)c3ccccc3)c2c1` (centres unmarked) [Example 39]: the IC50 is less than 0.05 µM. Next, `Cc1noc(C)c1-c1cc(C(N)=O)c2c3cc(N4CCCOC4=O)ccc3n(Cc3ccc(Cl)cc3)c2c1` [Example 157, 9-(4-chlorobenzyl)-2-(3,5-dimethyl-4-isoxazolyl)-6-(2-oxo-1,3-oxazinan-3-yl)-9H-carbazole-4-carboxamide]: less than 0.05 µM. The figure for `COc1ccccc1Cn1c2ccc(C(=O)N3CC(C)OC(C)C3)cc2c2ccc(-c3c(C)noc3C)cc21` (centres unmarked) [Example 15] is less than 0.5 µM; for `Cc1noc(C)c1-c1cc(C(N)=O)c2c3ccc(C(C)(C)O)cc3n(C(c3ccc(F)cc3)C3CCOCC3)c2c1` (single isomer, unassigned) [Example 220, 2-(Dimethyl-1,2-oxazol-4-yl)-9-[(4-fluorophenyl)(oxan-4-yl)methyl]-7-(2-hydroxypropan-2-yl)-9H-carbazole-4-carboxamide] it is less than 0.05 µM.
